Earlier results, collected in patent EP0837672B9, “PREPARATIONS AND METHODS FOR THE TREATMENT OF T CELL MEDIATED DISEASES” (YEDA RESEARCH AND DEVELOPMENT CO. LTD., priority 1995, dated 2005).

Test system: mice
Conditions: administered to mice sc in an oil vehicle such as incomplete Freund's adjuvant (IFA)

Substance | peptide therapy for treatment of IDDM
p12: peptide corresponding to positions 166-185 of the human hsp60 sequence (EEIAQVATISANGDKEIGNI; UniProt P10809 166-185, looked up, fragment) | effective
p32: peptide corresponding to positions 466-485 of the human hsp60 sequence (EIIKRTLKIPAMTIAKNAGV; UniProt P10809 466-485, looked up, fragment) | effective
p277: peptide corresponding to positions 437-460 of the human hsp 60 sequence (VLGGGCALLRCIPALDSLTPANED; UniProt P10809 437-460, looked up, fragment) | effective
